Data taken from patent publication US9763934B2, “Synergistic effect of poloxamer-based composition and itraconazole on fungus and yeast” (Professional Compounding Centers of America (PCCA), priority 2014, dated 2017).

System: C. albicans ATCC 90028 biofilm
Assay: Antifungal biofilm susceptibility testing (MBIC), NCCLS M27-A broth microdilution, CellTiter 96 viability readout
Type: cell-based, Candida albicans
Experimental: Materials: Itraconazole EP Micronized (lot number C149307) and PCCA Formula #10342 (4 g of Itraconazole EP Micronized +37.574 g of Poloxamer composition) were provided by PCCA (Houston, Tex., USA) as powders. Itraconazole and PCCA Formula #10342 were prepared on the day of the assay. Fluconazole and amphotericin B were obtained as powders and stored at 4° C. […] Strain: Candida albicans isolate ATCC 90028 was obtained from American Type Culture Collection (Manassas, Va.), and used in the course of this study. Methods: To determine antimicrobial activity of itraconazole and micronized poloxamer composition 202 against biofilms of Candida albicans, an antifungal biofilm susceptibility testing was developed in conditions where a Minimum Biofilm Inhibitory Concentration (MBIC) of itraconazole in a micronized poloxamer composition 202, micronized poloxamer excipient, itraconazole, fluconazole and amphotericin B was measured for the C. albicans biofilm according to the NCCLS M27-A broth microdilution method (NCCLS, 1997). The testing medium used for growing was RPMI 1640 (American Biorganics, Inc., […].) supplemented with L-glutamine (Sigma Aldrich®). […] Cell viability was determined by using CellTiter 96® Non-Radioactive Cell Proliferation Assay (Promega, 2013).

`C[C@@H]1[C@H](O)[C@@H](C)/C=C/C=C/C=C/C=C/C=C/C=C/C=C/[C@H](O[C@@H]2O[C@H](C)[C@@H](O)[C@H](N)[C@@H]2O)C[C@@H]2O[C@](O)(C[C@@H](O)C[C@@H](O)[C@H](O)CC[C@@H](O)C[C@@H](O)CC(=O)O[C@H]1C)C[C@H](O)[C@H]2C(=O)O` [Amphotericin B, amphotericin B] was tested, and the MBIC was 0.5 µg/mL and the “Minimum Biofilm Inhibitory Concentration” value (48 h at 35° C., lowest concentration giving 50% reduction of fungal growth, combination value expressed as concentration of itraconazole) was 0.5 µg/mL.
